Like-named read-outs stand apart in the source and are kept apart here.
Tested on: CEM-CM3 human leukaemic lymphoblasts
Assay: In vitro-ex vivo cytostatic activity of mouse peritoneal macrophages towards tumour targets
Conditions: for inhibition at 25 mg/kg: Mus musculus, Peritoneal macrophage
Description: In vitro-ex vivo effects of substances ST 689 and ST 789 on the cytostatic activity of mouse peritoneal macrophages (MO) towards tumour targets.
Male B6 D2 F1 mice (Charles River, Italy), 7 weeks old, 5 animals per experimental group, were treated with the above substances i.p. at daily dosages of 25 mg/kg from day -5 through day -1 relative to the day of macrophage sampling (day 0). The tumour target, CEM--CM3 human leukaemic lymphoblasts, was admixed with adherent Mo so as to have two different precisely-measured effector:target ratios, viz. 10:1 and 20:1. Each sample, prepared in triplicate in flat-bottom microliter wells, was labelled with ^3 H--TdR (0.05 μCi) by incubation for 18 h at 37° C. The tumour cells from each well were collected on filters, counted in a β-counter, and the % inhibition of tumour target growth determined using the formula. [formula]

**Q.** For `N=C(N)NCCC[C@H](NC(=O)OCCCCCn1cnc2c(=O)[nH]cnc21)C(=O)O` [ST 789, N-alfa-5-(hypoxanthin-9-yl)-pentyloxycarbonylarginine, reference compound], which “Growth inhibition of the CEM-CM3 cell line, in words” value (25 mg/kg daily i.p.) is on record?
**A.** definite increase in growth inhibition

**Q.** And the “% Growth Inhibition 10:1” value (effector:target ratio 10:1, 25 mg/kg daily day -5 through day -1)?
**A.** 15.85 ± 3.33%

**Q.** What about the “% Growth Inhibition 20:1” value (effector:target ratio 20:1, 25 mg/kg daily day -5 through day -1) of the same compound?
**A.** 30.31 ± 5.19%

**Q.** Which results are given for `O=c1[nH]cnc2c1cnn2CCCCCO` [ST 689, 1,5-dihydro-1-(5-hydroxypentyl)-4H-pyrazolo-[3,4-d]-pyrimidin-4-one]?
**A.** inhibition at 25 mg/kg (effector:target ratio 10:1, 25 mg/kg daily day -5 through day -1, read-out: % Growth Inhibition 10:1): 32.8 ± 1.84%; inhibition at 25 mg/kg (effector:target ratio 20:1, 25 mg/kg daily day -5 through day -1, read-out: % Growth Inhibition 20:1): 48 ± 5.46%

— US5272151A, “Aminoacyl and oligopeptidyl derivatives of allopurinol exhibiting immunostimulatory activity, and pharmaceutical formulations containing these substances” (Sigma-Tau Industrie Farmaceutiche Riunite S.p.A., priority 1991, dated 1993)
